Assays:
[1] = molecular target: 5-hydroxytryptamine receptor 6 (Homo sapiens, UniProt P50406); assay type: cell membranes, HeLa, Membrane; conditions: hela; further: in other assays of this panel Not Active means under 50% inhibition at 10 µM
Vasopressin V1a receptor = Vasopressin V1a receptor (Homo sapiens, UniProt P37288); assay type: cell membranes, Membrane; conditions: hek293; further: in other assays of this panel Not Active means under 50% inhibition at 10 µM
[2] = DRUGMATRIX: Calcium Channel Type L, Phenylalkylamine radioligand binding (ligand: [3H] (-)-Desmethoxyverapamil (D-888)); assay type: cell membranes, Rattus norvegicus, Wistar, Brain, Membrane; conditions: Not Active = under 50% inhibition at 10 µM
Histamine H2 receptor = Histamine H2 receptor (Homo sapiens, UniProt P25021); assay type: cell membranes, CHO-K1, Membrane; conditions: cho-k1; further: in other assays of this panel Not Active means under 50% inhibition at 10 µM
[3] = molecular target: T1, Angiotensin-converting enzyme (Oryctolagus cuniculus, UniProt P12822); assay type: tissue-based, Lung;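 further: enzymatic inhibition of angiotensin-converting enzyme measured with FAPGG as the substrate; in other assays of this panel Not Active means under 50% inhibition at 10 µM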
T1 sequence (P12822 whole entry): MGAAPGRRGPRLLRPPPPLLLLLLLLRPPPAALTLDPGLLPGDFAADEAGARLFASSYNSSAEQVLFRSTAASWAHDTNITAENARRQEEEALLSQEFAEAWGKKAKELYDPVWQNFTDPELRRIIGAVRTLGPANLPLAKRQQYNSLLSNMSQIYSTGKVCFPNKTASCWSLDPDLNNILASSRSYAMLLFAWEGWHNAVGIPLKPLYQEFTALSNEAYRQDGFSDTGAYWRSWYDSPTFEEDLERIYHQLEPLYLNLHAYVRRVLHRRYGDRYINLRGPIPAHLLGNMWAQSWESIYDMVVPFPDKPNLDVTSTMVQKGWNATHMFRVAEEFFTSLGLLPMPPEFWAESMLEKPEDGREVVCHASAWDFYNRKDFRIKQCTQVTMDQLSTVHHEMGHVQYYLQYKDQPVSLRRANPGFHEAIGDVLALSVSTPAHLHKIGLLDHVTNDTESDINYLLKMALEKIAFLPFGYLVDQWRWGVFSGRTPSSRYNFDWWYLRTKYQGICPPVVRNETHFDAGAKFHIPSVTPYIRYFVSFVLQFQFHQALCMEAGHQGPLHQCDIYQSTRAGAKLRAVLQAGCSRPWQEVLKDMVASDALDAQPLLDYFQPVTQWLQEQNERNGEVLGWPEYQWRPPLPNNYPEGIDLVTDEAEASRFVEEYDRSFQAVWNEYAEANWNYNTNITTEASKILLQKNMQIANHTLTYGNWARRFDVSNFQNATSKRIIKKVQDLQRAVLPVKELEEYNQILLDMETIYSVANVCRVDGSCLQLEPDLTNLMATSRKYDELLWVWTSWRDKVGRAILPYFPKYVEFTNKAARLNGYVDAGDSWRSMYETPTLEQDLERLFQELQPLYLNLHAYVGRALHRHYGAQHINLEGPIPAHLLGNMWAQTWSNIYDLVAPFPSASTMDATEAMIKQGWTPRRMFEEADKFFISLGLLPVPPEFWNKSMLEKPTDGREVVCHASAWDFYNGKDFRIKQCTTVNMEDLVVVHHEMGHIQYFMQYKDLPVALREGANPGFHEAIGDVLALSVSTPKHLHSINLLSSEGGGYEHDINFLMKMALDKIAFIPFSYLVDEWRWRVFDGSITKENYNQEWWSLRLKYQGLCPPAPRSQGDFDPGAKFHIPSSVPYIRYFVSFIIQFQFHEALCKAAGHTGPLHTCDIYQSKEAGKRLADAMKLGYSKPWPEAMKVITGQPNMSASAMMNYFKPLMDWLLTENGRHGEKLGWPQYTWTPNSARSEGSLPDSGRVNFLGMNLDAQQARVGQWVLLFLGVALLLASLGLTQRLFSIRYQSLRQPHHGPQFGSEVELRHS

[4] = molecular target: Protein phosphatase 3 catalytic subunit alpha (Homo sapiens, UniProt Q08209); set-up: species or system Escherichia coli
Adenosine receptor A2a = Adenosine receptor A2a (Homo sapiens, UniProt P29274); test: DRUGMATRIX: Adenosine A2A radioligand binding (ligand: […]); assay type: cell membranes, HEK293, Membrane; conditions: Not Active = under 50% inhibition at 10 µM
Sequence of Adenosine receptor A2a (P29274 whole entry): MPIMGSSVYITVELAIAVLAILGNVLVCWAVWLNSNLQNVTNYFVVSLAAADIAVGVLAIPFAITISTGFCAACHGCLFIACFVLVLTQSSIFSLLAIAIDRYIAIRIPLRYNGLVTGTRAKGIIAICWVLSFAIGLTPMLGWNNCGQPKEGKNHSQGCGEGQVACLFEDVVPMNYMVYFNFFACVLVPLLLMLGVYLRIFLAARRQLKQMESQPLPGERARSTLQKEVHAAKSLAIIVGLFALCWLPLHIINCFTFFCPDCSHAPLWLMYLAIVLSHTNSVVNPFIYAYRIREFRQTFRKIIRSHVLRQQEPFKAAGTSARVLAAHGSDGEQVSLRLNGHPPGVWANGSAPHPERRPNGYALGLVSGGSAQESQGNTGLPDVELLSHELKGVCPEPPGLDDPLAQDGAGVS

Sequence of Histamine H2 receptor (P25021 whole entry): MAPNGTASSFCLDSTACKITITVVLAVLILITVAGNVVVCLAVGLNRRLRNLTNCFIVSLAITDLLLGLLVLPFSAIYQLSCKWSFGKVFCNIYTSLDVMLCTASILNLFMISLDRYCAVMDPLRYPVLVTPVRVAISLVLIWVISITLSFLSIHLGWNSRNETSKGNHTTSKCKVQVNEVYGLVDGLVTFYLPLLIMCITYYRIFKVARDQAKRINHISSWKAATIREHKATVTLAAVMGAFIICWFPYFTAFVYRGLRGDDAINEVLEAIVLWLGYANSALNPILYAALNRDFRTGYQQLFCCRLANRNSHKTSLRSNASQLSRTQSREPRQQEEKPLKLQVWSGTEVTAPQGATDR
Sequence of Vasopressin V1a receptor (P37288 whole entry): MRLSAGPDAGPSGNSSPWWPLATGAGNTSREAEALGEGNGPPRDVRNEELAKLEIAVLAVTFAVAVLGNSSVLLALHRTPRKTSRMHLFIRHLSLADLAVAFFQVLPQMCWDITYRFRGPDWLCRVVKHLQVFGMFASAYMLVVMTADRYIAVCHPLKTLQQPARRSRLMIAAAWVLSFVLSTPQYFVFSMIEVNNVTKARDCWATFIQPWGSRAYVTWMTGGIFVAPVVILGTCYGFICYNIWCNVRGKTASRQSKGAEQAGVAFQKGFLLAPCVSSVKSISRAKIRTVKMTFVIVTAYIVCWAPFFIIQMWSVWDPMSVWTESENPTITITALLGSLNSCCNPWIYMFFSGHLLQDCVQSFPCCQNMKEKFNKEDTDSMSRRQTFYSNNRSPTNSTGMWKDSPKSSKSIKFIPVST
Sequence of 5-hydroxytryptamine receptor 6 (P50406 whole entry): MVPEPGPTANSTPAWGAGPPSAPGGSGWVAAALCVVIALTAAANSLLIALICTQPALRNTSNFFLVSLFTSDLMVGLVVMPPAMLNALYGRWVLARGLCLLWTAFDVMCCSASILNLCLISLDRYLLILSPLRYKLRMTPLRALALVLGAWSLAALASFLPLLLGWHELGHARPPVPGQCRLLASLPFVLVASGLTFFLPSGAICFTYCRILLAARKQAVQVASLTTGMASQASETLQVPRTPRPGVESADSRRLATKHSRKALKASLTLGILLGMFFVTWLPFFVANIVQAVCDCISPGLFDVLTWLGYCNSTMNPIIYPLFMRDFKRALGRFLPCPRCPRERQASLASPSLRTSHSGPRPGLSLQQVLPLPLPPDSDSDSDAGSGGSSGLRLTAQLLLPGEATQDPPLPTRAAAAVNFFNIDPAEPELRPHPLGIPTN

Row | SMILES | IC50 [1] | IC50 (Vasopressin V1a receptor) | IC50 [2] | Ki [2] | IC50 (Histamine H2 receptor) | IC50 [3] | IC50 [4] | IC50 (Adenosine receptor A2a; hek293) | IC50 (Adenosine receptor A2a; read-out: IC50) | Ki (Adenosine receptor A2a; read-out: Ki)
1 | O=C(N[C@H](CO)[C@H](O)c1ccc([N+](=O)[O-])cc1)C(Cl)Cl [CHLORAMPHENICOL] | Not Active | Not Active | Not Active | Not Active | Not Active | Not Active | Not Active | Not Active | – | –
2 | Cn1c(=O)c2c(ncn2CC2OCCO2)n(C)c1=O [DOXOFYLLINE] | Not Active | Not Active | Not Active | Not Active | Not Active | Not Active | Not Active | Not Active | – | –
3 | CCC1=C[C@@H]2CN(C1)Cc1c([nH]c3ccccc13)[C@@](C(=O)OC)(c1cc3c(cc1OC)N(C)[C@H]1[C@@](O)(C(=O)OC)[C@H](OC(C)=O)[C@]4(CC)C=CCN5CC[C@]31[C@@H]54)C2 [VINORELBINE] | Not Active | Not Active | Not Active | Not Active | Not Active | Not Active | Not Active | Not Active | – | –
4 | CC(C(=O)O)c1cccc(C(=O)c2ccccc2)c1 (configuration not stated) [KETOPROFEN] | Not Active | Not Active | Not Active | Not Active | Not Active | Not Active | Not Active | Not Active | – | –
5 | O=c1ccc2ccccc2o1 [COUMARIN] | Not Active | Not Active | Not Active | Not Active | Not Active | Not Active | Not Active | Not Active | – | –
6 | CC1(C)O[C@@H]2C[C@H]3[C@@H]4C[C@H](F)C5=CC(=O)C=C[C@]5(C)[C@H]4[C@@H](O)C[C@]3(C)[C@]2(C(=O)CO)O1 [FLUNISOLIDE] | Not Active | Not Active | Not Active | Not Active | Not Active | Not Active | Not Active | Not Active | – | –
7 | CC1(C)O[C@@H]2C[C@H]3[C@@H]4C[C@H](F)C5=CC(=O)C=C[C@]5(C)[C@@]4(F)[C@@H](O)C[C@]3(C)[C@]2(C(=O)CO)O1 [FLUOCINOLONE ACETONIDE] | Not Active | Not Active | Not Active | Not Active | Not Active | Not Active | Not Active | Not Active | – | –
8 | N=C(Nc1ccccc1)Nc1ccccc1 | Not Active | Not Active | Not Active | Not Active | Not Active | Not Active | Not Active | Not Active | – | –
9 | CC[C@@H](CO)NCCN[C@@H](CC)CO [ETHAMBUTOL] | Not Active | Not Active | Not Active | Not Active | Not Active | Not Active | Not Active | Not Active | – | –
10 | CN1C(=O)COc2c(C(=O)NC3CN4CCC3CC4)cc(Cl)cc21 (configuration not stated) [AZASETRON] | Not Active | Not Active | Not Active | Not Active | Not Active | Not Active | Not Active | Not Active | – | –
11 | O=NN(CCCl)C(=O)NCCCl [CARMUSTINE] | Not Active | Not Active | Not Active | Not Active | Not Active | Not Active | Not Active | Not Active | – | –
12 | O=C(C1CCCCC1)N1CC(=O)N2CCc3ccccc3C2C1 (configuration not stated) [PRAZIQUANTEL] | Not Active | Not Active | Not Active | Not Active | Not Active | Not Active | Not Active | Not Active | – | –
13 | C[C@]12CC[C@@H]3c4ccc(OC(=O)c5ccccc5)cc4CC[C@H]3[C@@H]1CC[C@@H]2O [ESTRADIOL BENZOATE] | Not Active | Not Active | Not Active | Not Active | Not Active | Not Active | Not Active | Not Active | – | –
14 | C[N+](C)(C)CCO.[Cl-] [CHOLINE CHLORIDE] | Not Active | Not Active | Not Active | Not Active | Not Active | Not Active | Not Active | Not Active | – | –
15 | NC(=O)NO [HYDROXYUREA] | Not Active | Not Active | Not Active | Not Active | Not Active | Not Active | Not Active | Not Active | – | –
16 | C[C@@]12C(=O)OC(=O)[C@]1(C)[C@H]1CC[C@@H]2O1 [CANTHARIDIN] | Not Active | Not Active | Not Active | Not Active | Not Active | Not Active | Not Active | Not Active | – | –
17 | O=S(=O)([O-])CCS.[Na+] [MESNA] | Not Active | Not Active | Not Active | Not Active | Not Active | Not Active | Not Active | Not Active | – | –
18 | CCN[C@@H]1C[C@H](N)[C@@H](O[C@H]2OC(CN)=CC[C@H]2N)[C@H](O)[C@H]1O[C@H]1OC[C@](C)(O)[C@H](NC)[C@H]1O [NETILMICIN] | Not Active | Not Active | Not Active | Not Active | Not Active | Not Active | Not Active | Not Active | – | –
19 | C/C=C/C[C@@H](C)[C@@H](O)[C@H]1C(=O)N[C@@H](CC)C(=O)N(C)CC(=O)N(C)[C@@H](CC(C)C)C(=O)N[C@@H](C(C)C)C(=O)N(C)[C@@H](CC(C)C)C(=O)N[C@@H](C)C(=O)N[C@H](C)C(=O)N(C)[C@@H](CC(C)C)C(=O)N(C)[C@@H](CC(C)C)C(=O)N(C)[C@@H](C(C)C)C(=O)N1C [CYCLOSPORINE] | Not Active | Not Active | Not Active | Not Active | Not Active | Not Active | – | Not Active | – | –
20 | CCOC(=O)C(C)(C)Oc1ccc(Cl)cc1 [CLOFIBRATE] | Not Active | Not Active | Not Active | Not Active | Not Active | Not Active | Not Active | Not Active | – | –
21 | C#C[C@]1(OC(C)=O)CC[C@H]2[C@@H]3CCC4=CC(=O)CC[C@@H]4[C@H]3CC[C@@]21C [NORETHINDRONE ACETATE] | Not Active | Not Active | Not Active | Not Active | Not Active | Not Active | Not Active | Not Active | – | –
22 | COC(=O)C1=C(C)NC(C)=C(C(=O)OCC(C)C)C1c1ccccc1[N+](=O)[O-] (configuration not stated) [NISOLDIPINE] | Not Active | Not Active | Not Active | Not Active | Not Active | Not Active | Not Active | – | 4.06 µM | 2.28 µM
23 | CC(=O)Nc1c(I)c(NC(C)=O)c(I)c(C(=O)O)c1I [DIATRIZOIC ACID] | Not Active | Not Active | Not Active | Not Active | Not Active | Not Active | Not Active | Not Active | – | –
24 | C[C@@H]1C[C@@H]([C@H](O)CC2CC(=O)NC(=O)C2)C(=O)[C@@H](C)C1 [CYCLOHEXIMIDE] | Not Active | Not Active | Not Active | Not Active | Not Active | Not Active | Not Active | Not Active | – | –

From ChEMBL document CHEMBL1909046, “DrugMatrix in vitro pharmacology data”
